Test results published in patent US9918983B2, “Suicidal LSD1 inhibitors targeting SOX2-expressing cancer cells” (THE BOARD OF REGENTS OF THE NEVADA SYSTEM OF HIGHER …, priority 2013, dated 2018).

Experiments:
IGROV1 cells = assay: Cell cycle analysis by FACS in IGROV1 cells; format: cell-based, human; conditions: 50 nM siRNA
Description: (§1) The fluorescence-activated cell sorting (FACS) and 3-(4,5-dimethyl-2-thiazolyl)-2,5-diphenyl-2H-tetrazolium bromide (MTT) assays were conducted as described previously (Lan, R., et al. (2012) Lab. Invest. 92, 1503-1514). To synchronize PA-1 and F9 cells at the G1/S phase transition, cells were treated with 2.5 mM thymidine for 12 h, released into fresh medium for 6 h, and blocked again with 2.5 mM thymidine for an additional 12 h. The cell cycle arrest was analyzed by FACS. For differentiation, F9 and PA-1 cells were seeded in 6-well plates at a density of 1×10^4 cells per well and supplemented with 5 μM RA for 3 days. Cells were then recultured in fresh medium without RA for another 2 days, and the cell cycle was analyzed on a BD FACSCalibur cell sorter using the CellQuest program (Becton, Dickinson, Mountain View, Calif.). The percentages of cells in G1, S, and G2/M phases were determined by the use of ModFit LT software.
(§2) Referring to FIG. 9C, Sox2-expressing A549, IGROV1, T47D and Sox2-negative H1437 cells were transfected with 50 nM luciferase (Luc) or LSD1 specific siRNAs for 60 hours and the cell cycle was analyzed by flow-cytometry (FACS).
(§3) Referring to FIG. 17A, Sox2-expressing A549, IGROV1, and T47D and Sox2-negative H1437 cells were transfected with luciferase and Sox2 specific siRNAs for 48 hours. The cell cycles of these cells after Sox2 ablation were analyzed by flow-cytometry.

H1437 cells = assay: Cell cycle analysis by FACS in H1437 cells; format: cell-based, human; conditions: 50 nM siRNA
Description: as §1, §2, §3

A549 cells = assay: Cell cycle analysis by FACS in A549 cells; format: cell-based, human; conditions: 50 nM siRNA
Description: as §1, §2, §3

T47D cells = assay: Cell cycle analysis by FACS in T47D cells; format: cell-based, human; conditions: 50 nM siRNA
Description: as §1, §2, §3

LSD1 = biological target: T1, LSD1 (Homo sapiens, UniProt O60341); assay: LSD1 activity (LSD1 IC50, Table 7, FIG. 2); format: cell-based
T1 construct: LSD1 activity determined in a cell-based assay as described herein; endogenous in cells
Description: For a typical deacetylation assay, 1 μg rHDAC1 or 1 μg immunoprecipitated endogenous HDAC1-protein A complexes (from two 10-cm dishes) was incubated with 0.4 μg H4K16ac peptide in the presence or absence of 50 μM CBB1007 or 2 μM MS-275 at 30° C. for 1 h. The percentages of deacetylated products were analyzed by mass spectrometry, and the data were analyzed by GraphPad Prism (version 5) software. The reaction products were analyzed by mass spectrometry to separate the peptide substrate (H4K16ac) and the product (H4K16), as previously described (Wang, J., et al. (2011) Cancer Research 71, 7238-7249). For a typical demethylation assay, 0.4 μg H3K4me2 substrate peptide was incubated individually with 1 μg recombinant LSD1 (rLSD1) or 1 μg immunoprecipitated LSD1-protein A complex in the presence or absence of 50 μM CBB1007 or 2 μM MS-275 at 30° C. for 1 h. The reaction products were analyzed by mass spectrometry to separate the products (H3K4me1 and H3K4) from the substrate (H3K4me2), as previously described (Wang, J., et al. (2011) Cancer Research 71, 7238-7249).
Table 7 below lists specific compounds and LSD1 activity determined in a cell-based assay as described herein (see also FIGS. 2A and 2B).

acetylated H4K16 = assay: H4K16 acetylation in HeLa cells (Western blotting); format: cell-based, human; conditions: VPA 1 μM or MS-275 2 μM 24 h, TSA 40 nM 16 h
Description: Referring to FIG. 31B, the acetylation of H4K16 is sensitive to pan-HDAC inhibitors in HeLa cells. F9 and HeLa cells were treated with the HDAC inhibitor VPA (1 μM) or MS-275 (2 μM) for 24 h or TSA (40 nM) for 16 h. Methylated and acetylated histones H3 and H4 were blotted by specific antibodies, as indicated, and quantified by the use of Gel-Pro Analyzer (version 4.0) software.

[1] = biological target: T2, recombinant HDAC1 (GST-HDAC1) (Homo sapiens, UniProt Q13547); assay: In vitro deacetylation assay, recombinant HDAC1, H4K16ac peptide; format: biochemical; conditions: 50 μM CBB1007 or 2 μM MS-275
T2 construct: Human LSD1 and HDAC1 full-length cDNAs were obtained from Open Biosystems; GST (N, cleaved yes); made in house; host or cells: Escherichia coli BL21
T2 sequence (Q13547 whole entry): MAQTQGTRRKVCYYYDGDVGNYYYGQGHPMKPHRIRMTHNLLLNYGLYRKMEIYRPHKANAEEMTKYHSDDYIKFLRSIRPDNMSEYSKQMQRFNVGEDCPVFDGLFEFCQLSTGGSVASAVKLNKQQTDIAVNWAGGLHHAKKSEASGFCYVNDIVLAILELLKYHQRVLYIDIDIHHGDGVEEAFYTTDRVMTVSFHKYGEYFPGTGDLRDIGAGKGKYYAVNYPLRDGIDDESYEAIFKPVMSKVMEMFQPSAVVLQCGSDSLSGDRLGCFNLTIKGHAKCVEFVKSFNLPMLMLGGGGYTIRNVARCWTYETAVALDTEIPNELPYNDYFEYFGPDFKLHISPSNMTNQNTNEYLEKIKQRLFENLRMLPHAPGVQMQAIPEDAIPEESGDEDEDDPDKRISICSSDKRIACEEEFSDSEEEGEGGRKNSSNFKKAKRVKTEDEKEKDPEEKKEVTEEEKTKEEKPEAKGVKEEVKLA
Description: Human LSD1 and HDAC1 full-length cDNAs were obtained from Open Biosystems. […] These cDNAs were fully sequenced and cloned into the pGEX-KG or pET28a vector and expressed as the glutathione S-transferase (GST)- or His-tagged fusion proteins in the Escherichia coli BL21 strain and affinity purified with glutathione or Ni-Sepharose (GE Healthcare, United Kingdom) resin. […] The GST tag and uncut GST-HDAC1/GST-LSD1 proteins were depleted by glutathione-Sepharose. For the reconstitution reaction, recombinant GST-CoREST, His-LSD1, and recombinant HDAC1 (rHDAC1) (GST was removed by the use of PreScission protease) (10 μg) were assembled into the LSD1-CoREST-HDAC1 complex and then pulled down by GSTSepharose resins. Protein A-Sepharose was used as a negative-control resin.

[2] = biological target: T3, LSD1-CoREST-HDAC1 complex (Homo sapiens, UniProt O60341+Q13547); assay: Reconstituted LSD1-CoREST-HDAC1 complex on oligonucleosomes; format: biochemical; conditions: 50 μM CBB1007 or 2 μM MS-275
T3 construct: Human LSD1 and HDAC1 full-length cDNAs were obtained from Open Biosystems; GST (N, cleaved yes); made in house; host or cells: Escherichia coli BL21
Description: For the reconstitution reaction, recombinant GST-CoREST, His-LSD1, and recombinant HDAC1 (rHDAC1) (GST was removed by the use of PreScission protease) (10 μg) were assembled into the LSD1-CoREST-HDAC1 complex and then pulled down by GSTSepharose resins. Protein A-Sepharose was used as a negative-control resin.
Briefly, cells (1×10^6) were washed twice with ice-cold hypotonic buffer (20 mM potassium-HEPES, pH 7.8, 5 mM potassium acetate, 0.5 mM MgCl2, 0.5 mM DTT), swelled, and disrupted with 25 strokes in a Dounce homogenizer using a tightfitting pestle. Nuclei were pelleted at 4,000 rpm for 5 min and resuspended in buffer A (20 mM HEPES, pH 7.9, 1.5 mM magnesium acetate, 50 mM potassium acetate, 10% glycerol, 0.5 mM DTT, 150 mM NaCl, protease and phosphatase inhibitors). […] The chromatin pellet was resuspended in 0.5 mL buffer B (0.32 M sucrose, 50 mM Tris-HCl, pH 7.5, 4 mM MgCl2, 1 mM CaCl2, 0.1 mM phenylmethylsulfonyl fluoride) and incubated with 30 units of micrococcal nuclease for 10 min at 37° C. The digested samples were centrifuged at 8,000×g for 10 min, and the supernatant, which contained oligonucleosomes, was recovered.
The reaction products (demethylated or deacetylated histones) were analyzed by Western blotting.

[3] = test system: histone H3 and H4 methylation and acetylation; assay: Histone modifications in F9 cells (Western blotting); format: cell-based, mouse
Description: To quantify and compare the protein band densities in the Western blots shown in the figures, a titration by serial dilution of the siRNA protein samples for mES cell lysates was used as a reference. The concentration of titration samples was measured by use of a NanoDrop 2000 apparatus, and the protein concentration of all titration samples was adjusted to 1 μg/μL. The protein samples were loaded onto an SDS-polyacrylamide gel at levels ranging from 1 μg to 13 μg at 2-μg intervals and immune blotted with each antibody, including anti-LSD1, anti-HDAC1, and anti-histone H3 antibodies, with three independent loadings. The Western blots were developed with exposure times ranging from 30 s to 1 min. The exposure density of each band was scanned by Adobe Photoshop Elements (version 4.0) software using a CanonScan 8600F scanner (Canon, Calif.) and was subsequently quantified by use of the area density tool of Gel-Pro Analyzer (version 4.0) software (Media Cybernetics, Inc.) and plotted. The regression analysis of each signal was performed by use of the Microsoft Excel program's Analysis Tool Pak regression option. […] The amount of the protein band in the Western blot shown in the figures was quantified by scanning, as described for the reference titration. […] The quantity of protein band densities between two protein samples was externally corrected by use of the reference plots. […] The statistical differences between the experimental and control groups were analyzed by one-way analysis of variance (ANOVA). […]
Referring to FIG. 28D, time course analyses of the effects of 50 μM LSD1 inhibitor CBB1007 on histone modifications in F9 cells are shown, but with a shorter time course than above. The mean density of each band was quantified by the use of Gel-Pro Analyzer (version 4.0) software, and error bars represent SEMs for duplicate samples. […] The statistical differences were analyzed by one-way ANOVA. *, P_0.05; **, P_0.01. […]

[4] = biological target: T4, recombinant LSD1 (GST-LSD1) (Homo sapiens, UniProt O60341); assay: In vitro demethylation assay, recombinant LSD1, H3K4me2 peptide; format: biochemical; conditions: H3K4me2 peptide, LSD1 and HDAC1 without CoREST
T4 construct: Human LSD1 and HDAC1 full-length cDNAs were obtained from Open Biosystems; GST (N, cleaved yes); made in house; host or cells: Escherichia coli BL21
Description: H3K4me2 and H4K16ac were purchased from AnaSpec and Shanghai Science Peptide Biological Technology Co., Ltd., respectively. Human LSD1 and HDAC1 full-length cDNAs were obtained from Open Biosystems. Human CoREST cDNA was amplified by reverse transcription-PCR (RT-PCR) using mRNA isolated from HeLa cells. These cDNAs were fully sequenced and cloned into the pGEX-KG or pET28a vector and expressed as the glutathione S-transferase (GST)- or His-tagged fusion proteins in the Escherichia coli BL21 strain and affinity purified with glutathione or Ni-Sepharose (GE Healthcare, United Kingdom) resin. […]
For a typical deacetylation assay, 1 μg rHDAC1 or 1 μg immunoprecipitated endogenous HDAC1-protein A complexes (from two 10-cm dishes) was incubated with 0.4 μg H4K16ac peptide in the presence or absence of 50 μM CBB1007 or 2 μM MS-275 at 30° C. for 1 h. The percentages of deacetylated products were analyzed by mass spectrometry, and the data were analyzed by GraphPad Prism (version 5) software. The reaction products were analyzed by mass spectrometry to separate the peptide substrate (H4K16ac) and the product (H4K16), as previously described (Wang, J., et al. (2011) Cancer Research 71, 7238-7249). […]

LSD1-protein A complex = biological target: T5, LSD1-protein A complex (Mus musculus, UniProt Q6ZQ88); assay: In vitro demethylation assay, immunoaffinity-purified LSD1-protein A complex from F9 cells; format: biochemical
T5 construct: recombinant and endogenous LSD1 complexes isolated from F9 cells; endogenous in cells; host or cells: F9 mouse teratocarcinoma cells, anti-LSD1 immunoprecipitate on protein A-Sepharose
Description: (§4) The immunocomplexes were captured by protein A-Sepharose. Isolated LSD1-protein A or HDAC1-protein A complexes were verified by Western blotting with LSD1 and HDAC1 antibodies.

HDAC1-protein A complex = biological target: T6, HDAC1-protein A complex (Mus musculus, UniProt O09106); assay: In vitro deacetylation assay, immunoaffinity-purified HDAC1-protein A complex from F9 cells; format: biochemical
T6 construct: 1 μg immunoprecipitated endogenous HDAC1-protein A complexes; endogenous in cells; host or cells: F9 mouse teratocarcinoma cells, anti-HDAC1 immunoprecipitate on protein A-Sepharose
Description: as §4

## Sox2 siRNA: siRNA, human Sox2: CGCUCAUGAAGAAGGAUAA (SEQ ID NO:2) (listed as RNA, chemistry not given here)
IGROV1 cells
  cell cycle population G0/G1: 74.62%
  cell cycle population G2/M: 12.52%
  cell cycle population S: 12.87%
H1437 cells
  cell cycle population G0/G1: 39.39%
  cell cycle population G2/M: 35.51%
  cell cycle population S: 25.10%
A549 cells
  cell cycle population G0/G1: 76.40%
  cell cycle population G2/M: 0.19%
  cell cycle population S: 23.41%
T47D cells
  cell cycle population G0/G1: 74.65%
  cell cycle population G2/M: 10.86%
  cell cycle population S: 14.48%

## N[C@@H]1C[C@H]1c1ccc(OCc2ccccc2)cc1 [Compound 3]
LSD1
  IC50: 39.4 µM

## CN1CCN(CCN[C@@H]2C[C@H]2c2ccc(OCc3ccccc3)cc2)CC1 [Compound 2]
LSD1
  IC50: 31.4 µM

## LSD1 siRNA: siRNA, human LSD1: GGAAGAAGAUAGUGAAAAC (SEQ ID NO:1) (listed as RNA, chemistry not given here)
IGROV1 cells
  cell cycle population G0/G1: 78.07%
  cell cycle population G2/M: 8.56%
  cell cycle population S: 13.37%
H1437 cells
  cell cycle population G0/G1: 37.28%
  cell cycle population G2/M: 37.75%
  cell cycle population S: 24.97%
A549 cells
  cell cycle population G0/G1: 74.81%
  cell cycle population G2/M: 0.65%
  cell cycle population S: 24.55%
T47D cells
  cell cycle population G0/G1: 76.34%
  cell cycle population G2/M: 12.17%
  cell cycle population S: 11.49%

## CCCC(CCC)C(=O)O [VPA, valproic acid]
Acetylated H4K16
  acetylated H4K16 level: induced the accumulation of acetylated H4K16

## Nc1ccccc1NC(=O)c1ccc(CNC(=O)OCc2cccnc2)cc1 [MS-275]
[1]
  deacetylase activity of recombinant HDAC1: inhibited
Acetylated H4K16
  acetylated H4K16 level: induced the accumulation of acetylated H4K16
[2]
  HDAC1 deacetylase activity in the reconstituted complex: blocking the HDAC1 activity
  LSD1 demethylase activity in the reconstituted complex: partially inhibit the LSD1 demethylase activity
[3]
  H4K16 acetylation of oligonucleosomes from treated cells: hyperacetylated on H4K16
[4]
  LSD1 activity in the absence of CoREST: not sensitive
LSD1-protein A complex
  demethylation activity of immunoaffinity-purified LSD1 (LSD1-protein A): blocked the demethylation activity
HDAC1-protein A complex
  deacetylase activity of immunoaffinity-purified HDAC1 (HDAC1-protein A): sensitive

## CC(/C=C/C(=O)NO)=C\[C@@H](C)C(=O)c1ccc(N(C)C)cc1 [TSA, trichostatin A]
Acetylated H4K16
  acetylated H4K16 level: induced the accumulation of acetylated H4K16
